{"source": "patent US12594263B2", "about": "“CBL inhibitors and compositions for expansion of immune cells” (Nurix Therapeutics, Inc., priority 2019, dated 2026)", "tested_on": "E.G7-OVA tumors", "assay": "Oral Cbl inhibitor treatment of mice given expanded OT-1 cells", "assay_type": "in vivo, mouse", "protocol": "Tumor volume was measured roughly every five days after cell transfer.\nOT-1 cells were assessed in mouse blood 5 days and 20 days after transfer.", "key": {"[1]": {"settings": "5 days and 20 days after transfer (FIGS. 20A, 20B)"}}}
{"smiles": "C[C@H]1CCCN(Cc2cc3c(c(C(F)(F)F)c2)CN(c2cccc([C@]4(c5nncn5C)C[C@@H](C)C4)c2)C3=O)C1", "note": "[Compound 116]", "values": [{"measurement": "Frequency of OT-1 cells in mouse blood", "setting": "[1]", "value": "increased frequency of OT-1 cells"}, {"measurement": "Persistence of OT-1 cells in mouse blood", "setting": "[1]", "value": "longer persistence of OT-1 cells"}, {"measurement": "Anti-tumor efficacy of OT-1 cells expanded with compound 103 plus IL-2 (tumor volume)", "setting": "oral administration (FIG. 18)", "value": "enhanced the anti-tumor efficacy"}, {"measurement": "Survival of mice treated with OT-1 cells expanded with compound 103 plus IL-2", "setting": "oral administration (FIG. 19)", "value": "enhanced survival"}]}
